This is an account of results in patent publication US8658637B2, “Glucocorticoid mimetics, methods of making them, pharmaceutical compositions and uses thereof” (Boehringer Ingelheim International GmbH, priority 2006, dated 2014).

The test system of this test is IL-6 production in human foreskin fibroblast cells. Briefly: Inhibition of IL-6 Production in Fibroblasts (Cell Assay for Transrepression). The test is classed as cell-based. The conditions noted are these: IL-1 stimulated human foreskin fibroblasts; for EC50: read-out: agonistic activity (EC50) by inhibiting IL-6 production in Fibroblasts; for Emax: read-out: efficacy by inhibiting IL-6 production in Fibroblasts. Here is the method: 2. Inhibition of IL-6 Production in Fibroblasts (Cell Assay for Transrepression)
Human foreskin fibroblast cells produce IL-6 in response to stimulation by proinflammatory cytokine IL-1.
Human foreskin fibroblast cells (ATCC Cat. No. CRL-2429) are plated on 96 well plates at 5,000 cells per well the day before use, in Iscove's Modified Dulbecco's Media (GibcoBRL Life Technologies Cat. No. 12440-053) supplemented with 10% charcoal filtered FBS (Clonetech Cat. No. SH30068) and Gentamycin (GibcoBRL Life Technologies Cat. No. 15710-064). On the next day, media in the wells is replaced with fresh media. Cells are treated with IL-1 (rhIL-1α, R&D Systems Cat. No. 200-LA) to a final concentration of 1 ng/mL, and with test compounds to final concentrations of 10^−5 M to 10^−8 M, in a total volume of 200 μL per well. Samples are done in duplicates. […] Positive control wells receive IL-1 only and represent maximum (or 100%) amount of IL-6 production. Plates are incubated at 37° C. overnight (15 to 18 hours), and supernatants are harvested at the end of incubation. IL-6 levels in the supernatants are determined by the ELISA kits for IL-6 (MedSystems Diagnostics GmbH, Vienna, Austria, Cat. No. BMS213TEN) according to manufacture's instructions. The extent of inhibition of IL-6 by test compounds is expressed in percentage relative to positive controls. IC50 values of test compounds are derived by non-linear curve fitting.

In the case of `COc1nccc2c(C(O)(c3ccc4c(cnn4-c4ccc(F)cc4)c3)C(F)(F)F)cn(CC(O)CO)c12` (stereo not shown) [3-(7-Methoxy-3-{2,2,2-trifluoro-1-[1-(4-fluorophenyl)-1H-indazol-5-yl]-1-hydroxyethyl}pyrrolo[2,3-c]pyridin-1-yl)propane-1,2-diol], the EC50 is no more than 1000 nM and the Emax is greater than 50%.

As for `CNC(=O)Cn1cc(C(O)(c2ccc3c(cnn3-c3ccc(F)cc3)c2)C(F)(F)F)c2ccc(Br)cc21` (stereo not shown) [2-(6-Bromo-3-{2,2,2-trifluoro-1-[1-(4-fluorophenyl)-1H-indazol-5-yl]-1-hydroxyethyl}indol-1-yl)-N-methylacetamide], the EC50 is no more than 1000 nM and the Emax is greater than 50%.

Regarding `C=CCCn1cc(C(O)(c2ccc3c(cnn3-c3ccc(F)cc3)c2)C(F)(F)F)c2ccccc21` (stereo not shown) [1-(1-But-3-enyl-1H-indol-3-yl)-2,2,2-trifluoro-1-[1-(4-fluorophenyl)-1H-indazol-5-yl]ethanol], the EC50 was no more than 1000 nM and the Emax was greater than 50%.

Take `N#CCn1cc(C(O)(c2ccc3c(cnn3-c3ccc(F)cc3)c2)C(F)(F)F)c2cccnc21` (stereo not shown) [(3-{2,2,2-Trifluoro-1-[1-(4-fluorophenyl)-1H-indazol-5-yl]-1-hydroxyethyl}pyrrolo[2,3-b]pyridin-1-yl)acetonitrile]: the EC50 was no more than 1000 nM and the Emax is greater than 50%.

On to `C=CCn1cc(C(O)(c2ccc3c(cnn3-c3ccc(F)cc3)c2)C(F)(F)F)c2ncn(C)c(=O)c21` (stereo not shown) [5-Allyl-3-methyl-7-{2,2,2-trifluoro-1-[1-(4-fluorophenyl)-1H-indazol-5-yl]-1-hydroxyethyl}-3,5-dihydropyrrolo[3,2-d]pyrimidin-4-one], for which the EC50 was no more than 1000 nM and the Emax is greater than 50%.

With `OCC(O)Cn1cc(C(O)(c2ccc3c(c2)nnn3-c2ccc(F)cc2)C(F)(F)F)c2ccccc21` (stereo not shown) [3-(3-{2,2,2-Trifluoro-1-[1-(4-fluorophenyl)-1H-benzotriazol-5-yl]-1-hydroxyethyl}indol-1-yl)propane-1,2-diol], the EC50 is no more than 1000 nM and the Emax was greater than 50%.

As to `Cn1ccc2c(C(O)(c3ccc4c(cnn4-c4ccc(F)cc4)c3)C(F)(F)F)cn(CC(N)=O)c2c1=O` (stereo not shown) [2-(6-Methyl-7-oxo-3-{2,2,2-trifluoro-1-[1-(4-fluorophenyl)-1H-indazol-5-yl]-1-hydroxyethyl}-6,7-dihydropyrrolo[2,3-c]pyridin-1-yl)acetamide], the EC50 was no more than 1000 nM and the Emax is greater than 50%.

Regarding `C[C@@H](O)Cn1cc(C(O)(c2ccc3c(cnn3-c3ccc(F)cc3)c2)C(F)(F)F)c2ccccc21` (stereo partly drawn) [(R)-1-(3-{2,2,2-Trifluoro-1-[1-(4-fluorophenyl)-1H-indazol-5-yl]-1-hydroxyethyl}indol-1-yl)propan-2-ol], the EC50 is no more than 1000 nM and the Emax is greater than 50%.

As to `OCC(O)CCn1cc(C(O)(c2ccc3c(cnn3-c3ccc(F)cc3)c2)C(F)(F)F)c2ccccc21` (stereo not shown) [4-(3-{2,2,2-Trifluoro-1-[1-(4-fluorophenyl)-1H-indazol-5-yl]-1-hydroxyethyl}indol-1-yl)-butane-1,2-diol], the half-maximal effective concentration (EC50) was no more than 1000 nM and the Emax was greater than 50%.

As for `OCC(O)Cn1cc(C(O)(c2ccc3c(cnn3-c3ccc(F)cc3)c2)C(F)(F)F)c2ccc(Br)cc21` (stereo not shown) [3-(6-Bromo-3-{2,2,2-trifluoro-1-[1-(4-fluorophenyl)-1H-indazol-5-yl]-1-hydroxyethyl}indol-1-yl)propane-1,2-diol], the EC50 is no more than 1000 nM and the Emax is greater than 50%.

In the case of `N#Cc1nn(CC(O)CO)cc1C(O)(c1ccc2c(cnn2-c2ccc(F)cc2)c1)C(F)(F)F` (stereo not shown) [1-(2,3-Dihydroxypropyl)-4-{2,2,2-trifluoro-1-[1-(4-fluorophenyl)-1H-indazol-5-yl]-1-hydroxyethyl}-1H-pyrazole-3-carbonitrile], the EC50 was no more than 1000 nM and the Emax was greater than 50%.

In general, EC50 refers to the concentration that produces a half-maximal response.
